From patent US20220213092A1, “BICYCLIC PYRAZOLE BRUTON'S TYROSINE KINASE INHIBITORS” (AbbVie Inc., priority 2020, published 2022)

System: CYP3A4
Experiment: CYP3A4 induction assay (CYP 3A4 mRNA by qPCR in cryopreserved human hepatocytes)
Format: in vitro ADME
Details: 10 μM compound; for CYP3A4 Ind. (%): value in brackets: induction relative to prototypical inducer rifampicin = 100%
Experimental: CYP induction was evaluated in vitro by determining the expression levels of CYP 3A4 mRNA using the qPCR (quantitative polymerase chain reaction) assay. On day one, cryopreserved human hepatocytes were thawed in prewarmed (37° C.) thawing medium (cryopreserved hepatocyte recovery medium, Gibco™ CM 7000; Thermo Fisher Scientific), centrifuged (1000 g for 10 minutes) and resuspended in plating medium (Gibco™ CM3000—Williams Medium E supplemented with hepatocytes plating supplement pak-serum containing; Thermo Fisher Scientific). Cells were counted by trypan blue exclusion using a hemocytometer and adjusted to a cell density of […]. Thereafter, […] of cell suspension was aliquoted per well in a 96-well plate, resulting in 60,000 cells/well. Plates were shaken in the north-south and east-west direction during plating. Plated cells were incubated at 37° C./5% CO2 in a humidified cell culture incubator for 4-6 hours. During this time, incubation medium (Gibco™ CM4000, cell maintenance supplement pack; Thermo Fisher Scientific) was mixed with Gibco™ Geltrex™ (Thermo Fischer Scientific) at the appropriate Geltrex™ protein concentration. Following recovery, medium was removed from cells and replaced with freshly prepared incubation medium. Cells were incubated overnight in a cell culture incubator (37° C./5% CO2).
The next day the incubation medium was prepared by combining the hepatocyte maintenance supplement pack with Williams medium E. The medium was warmed to 37° C. 1000× dimethyl sulfoxide compound stocks were prepared to the desired concentrations. 10 mM compound stocks in dimethyl sulfoxide were diluted (1 μL to 1 mL CM4000; final concentration=10 μM). Overlay medium was aspirated and […] dose solution added to the desired labeled 96 well plate. Cells were returned to the humidified incubator overnight (37° C./5% CO2).
On day 3, incubation medium was warmed to 37° C., and the same process for compound preparation repeated as in day 2, i.e. 1000× dimethyl sulfoxide compound stocks were prepared to the desired concentration, diluted (1:1000) in warm incubation medium, and this freshly prepared medium was used to replace treatment medium. Cells were returned to the humidified incubator (37° C./5% CO2) overnight.
On day 4, RNA isolation was performed. Prior to RNA isolation, cell viability was assessed using presto blue reagent. 10× dilution of PrestoBlue™ reagent (Thermo Fisher Scientific) was prepared by mixing 1.4 mL PrestoBlue™ with 12.6 mL incubation medium. Medium was aspirated from cells, and 100 μL of cell viability medium (10× dilution of PrestoBlue™ reagent) added and incubated for 17 minutes. Cell viability was determined by measuring absorbance using a microplate reader (Spark® 10M Tecan Life Sciences). After this measurement, media was aspirated using a multichannel aspirator and a glass pipet to completely aspirate from each well. Plates were stored or immediately used for mRNA isolation. All surfaces were cleaned using RNase away. 2× Lysis buffer was well mixed after incubation at ambient temperature. Fresh lysis buffer was prepared by mixing 0.125 μL of 0.5 mM DTT with 4.875 μL 2× lysis buffer. 1× lysis buffer containing DTT was then prepared by adding 5 μL dilution buffer to the 2× lysis buffer and mixing thoroughly. Thereafter, cell lysates were prepared by adding 1× lysis buffer to each sample well (96-well plate). Samples were incubated for 3-6 minutes at ambient temperature while shaking (350-400 rpm) to lyse the cells. Cells were scrapped with tips, and cell lysate (80 μL) was transferred to each well of the mRNA Catcher PLUS™ plate (Thermo Fisher Scientific). mRNA Catcher PLUS™ plate containing samples was covered with adhesive plastic film plate cover and incubated at ambient temperature for 45-60 minutes for RNA hybridization.
After hybridization, lysate was aspirated from the cells. […]

| SMILES | CYP3A4 Ind. (%) | CYP3A4 Ind. fold (CYP3A4 mRNA fold change vs vehicle) [fold] |
| --- | --- | --- |
| C=CC(=O)N1CCC([C@@H]2CCNc3c(C(N)=O)c(-c4ccc(Oc5ccccc5)cc4)nn32)CC1 [Compound A, reference compound] | 125 | – |
| C=CC(=O)N1CCN([C@@H]2CCNc3c2nn(-c2ccc(Oc4ccccc4)cc2)c3C(N)=O)CC1 [Example 6, (7R)-2-(4-phenoxyphenyl)-7-[4-(prop-2-enoyl)piperazin-1-yl]-4,5,6,7-tetrahydro-2H-pyrazolo[4,3-b]pyridine-3-carboxamide] | −1.3 | 0.9 |
